Reference: ChEMBL document CHEMBL5523762, “Discovery of Potent and Selective G9a Degraders for the Treatment of Pancreatic Cancer” (J Med Chem, 2024)
The source made the active and inactive calls. No cut-off for these calls is given here.

Assays:
[1] = system: PANC-1; assay: Antiproliferative activity against human PANC-1 cells assessed as inhibition of cell growth measured after 72 hrs by SRB assay; assay type: functional, cell-based
[2] = system: PANC-1; assay: Downregulation of H3K9me2 level in human PANC-1 cells measured after 24 hrs by Western blot analysis; assay type: functional, cell-based; details: dose 0.04-10 µM
[3] = Cmax in male ICR mouse at 20 mg/kg, ip measured upto 24 hrs by LC-MS/MS analysis; assay type: ADME, organism-based; details: in vivo
[4] = system: PANC-1; assay: Effect on H3K27me2 level in human PANC-1 cells at 0.04 to 10 uM measured after 24 hrs by Western blot analysis; assay type: functional, cell-based; details: dose 0.04-10 µM
[5] = target: T1, Protein cereblon/Histone-lysine N-methyltransferase EHMT1 (Homo sapiens) (UniProt Q9H9B1+Q96SW2); assay: PROTAC activity at CRBN/GLP in human PANC-1 cells assessed as downregulation of GLP protein level at 1 uM measured after 8 hrs by quantitative proteomics analysis; assay type: cell-based
T1 sequence (Q96SW2 whole entry, looked up): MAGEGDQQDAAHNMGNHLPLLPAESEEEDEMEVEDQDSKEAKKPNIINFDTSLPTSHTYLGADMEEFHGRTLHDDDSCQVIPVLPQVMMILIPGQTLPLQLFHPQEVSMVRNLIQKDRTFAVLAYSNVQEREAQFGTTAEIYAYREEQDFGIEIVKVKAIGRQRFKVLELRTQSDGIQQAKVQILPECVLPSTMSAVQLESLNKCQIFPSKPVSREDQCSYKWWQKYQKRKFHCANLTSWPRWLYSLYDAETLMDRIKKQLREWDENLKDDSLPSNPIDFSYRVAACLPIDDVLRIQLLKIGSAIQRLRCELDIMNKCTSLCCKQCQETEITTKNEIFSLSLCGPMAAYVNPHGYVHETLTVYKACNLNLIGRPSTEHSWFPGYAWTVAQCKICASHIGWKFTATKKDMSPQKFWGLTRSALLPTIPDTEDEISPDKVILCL
T1 sequence (Q9H9B1 whole entry, looked up): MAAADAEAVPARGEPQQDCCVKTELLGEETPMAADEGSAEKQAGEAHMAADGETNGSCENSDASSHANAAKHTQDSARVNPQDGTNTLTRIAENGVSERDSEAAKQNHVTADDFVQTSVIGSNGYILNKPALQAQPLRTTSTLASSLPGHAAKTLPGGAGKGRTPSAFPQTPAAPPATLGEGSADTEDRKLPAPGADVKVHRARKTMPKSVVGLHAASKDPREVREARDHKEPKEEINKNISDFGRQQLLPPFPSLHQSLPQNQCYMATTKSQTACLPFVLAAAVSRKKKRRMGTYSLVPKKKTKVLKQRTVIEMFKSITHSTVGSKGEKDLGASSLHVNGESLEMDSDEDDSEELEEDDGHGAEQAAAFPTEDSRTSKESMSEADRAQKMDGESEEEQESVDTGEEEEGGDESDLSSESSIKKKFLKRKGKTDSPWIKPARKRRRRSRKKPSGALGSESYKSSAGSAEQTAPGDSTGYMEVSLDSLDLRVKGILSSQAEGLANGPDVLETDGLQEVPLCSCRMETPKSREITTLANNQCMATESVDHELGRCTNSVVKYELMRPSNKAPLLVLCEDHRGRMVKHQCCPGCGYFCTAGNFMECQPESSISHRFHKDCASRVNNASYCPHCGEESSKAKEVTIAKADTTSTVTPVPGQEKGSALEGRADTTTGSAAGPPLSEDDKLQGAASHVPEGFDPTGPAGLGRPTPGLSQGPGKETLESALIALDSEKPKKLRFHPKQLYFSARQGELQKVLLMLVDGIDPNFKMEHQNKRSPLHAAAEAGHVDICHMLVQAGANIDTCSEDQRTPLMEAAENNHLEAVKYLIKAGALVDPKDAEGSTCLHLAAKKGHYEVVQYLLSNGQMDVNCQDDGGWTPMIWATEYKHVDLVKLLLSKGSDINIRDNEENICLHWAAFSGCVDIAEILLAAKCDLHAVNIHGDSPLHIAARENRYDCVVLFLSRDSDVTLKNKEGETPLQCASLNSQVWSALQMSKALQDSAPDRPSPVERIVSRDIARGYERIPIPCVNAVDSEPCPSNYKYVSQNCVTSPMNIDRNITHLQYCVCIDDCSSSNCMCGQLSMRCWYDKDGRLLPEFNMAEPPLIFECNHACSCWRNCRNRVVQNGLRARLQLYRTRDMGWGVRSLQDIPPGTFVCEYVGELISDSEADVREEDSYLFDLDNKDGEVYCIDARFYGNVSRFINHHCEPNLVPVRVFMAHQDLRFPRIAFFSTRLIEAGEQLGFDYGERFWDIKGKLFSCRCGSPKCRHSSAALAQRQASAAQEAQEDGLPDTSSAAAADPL

[6] = system: HPAF-II; assay: Synergistic antiproliferative activity against human HPAF-II cells assessed as combination index for ED90 upto 20 uM incubated for 72 hrs in presence of MRTX1133; assay type: functional
[7] = system: PANC-08-13; assay: Synergistic antiproliferative activity against human PANC-08-13 cells assessed as combination index for ED90 upto 20 uM incubated for 72 hrs in presence of MRTX1133; assay type: functional
[8] = AUC (0 to t) in male ICR mouse at 20 mg/kg, ip measured upto 24 hrs by LC-MS/MS analysis; assay type: ADME, organism-based; details: in vivo
[9] = system: PANC-1; assay: Effect on GLP mRNA expression at transcriptional level in human PANC-1 cells at 0.1 to 10 uM by RT-qPCR analysis; assay type: functional, cell-based; details: dose 0.1-10 µM
[10] = target: T2, Protein cereblon/Histone-lysine N-methyltransferase EHMT2 (Homo sapiens, UniProt Q96KQ7+Q96SW2); assay: PROTAC activity at CRBN/G9a in human PANC-1 cells assessed as induction of G9a degradation at 1 uM pretreated with MG132 for 2 hrs followed by compound addition and measured after 8 hrs by Western blot analysis; assay type: cell-based
Target sequence in this assay (Q96KQ7 2-1210 limits assumed): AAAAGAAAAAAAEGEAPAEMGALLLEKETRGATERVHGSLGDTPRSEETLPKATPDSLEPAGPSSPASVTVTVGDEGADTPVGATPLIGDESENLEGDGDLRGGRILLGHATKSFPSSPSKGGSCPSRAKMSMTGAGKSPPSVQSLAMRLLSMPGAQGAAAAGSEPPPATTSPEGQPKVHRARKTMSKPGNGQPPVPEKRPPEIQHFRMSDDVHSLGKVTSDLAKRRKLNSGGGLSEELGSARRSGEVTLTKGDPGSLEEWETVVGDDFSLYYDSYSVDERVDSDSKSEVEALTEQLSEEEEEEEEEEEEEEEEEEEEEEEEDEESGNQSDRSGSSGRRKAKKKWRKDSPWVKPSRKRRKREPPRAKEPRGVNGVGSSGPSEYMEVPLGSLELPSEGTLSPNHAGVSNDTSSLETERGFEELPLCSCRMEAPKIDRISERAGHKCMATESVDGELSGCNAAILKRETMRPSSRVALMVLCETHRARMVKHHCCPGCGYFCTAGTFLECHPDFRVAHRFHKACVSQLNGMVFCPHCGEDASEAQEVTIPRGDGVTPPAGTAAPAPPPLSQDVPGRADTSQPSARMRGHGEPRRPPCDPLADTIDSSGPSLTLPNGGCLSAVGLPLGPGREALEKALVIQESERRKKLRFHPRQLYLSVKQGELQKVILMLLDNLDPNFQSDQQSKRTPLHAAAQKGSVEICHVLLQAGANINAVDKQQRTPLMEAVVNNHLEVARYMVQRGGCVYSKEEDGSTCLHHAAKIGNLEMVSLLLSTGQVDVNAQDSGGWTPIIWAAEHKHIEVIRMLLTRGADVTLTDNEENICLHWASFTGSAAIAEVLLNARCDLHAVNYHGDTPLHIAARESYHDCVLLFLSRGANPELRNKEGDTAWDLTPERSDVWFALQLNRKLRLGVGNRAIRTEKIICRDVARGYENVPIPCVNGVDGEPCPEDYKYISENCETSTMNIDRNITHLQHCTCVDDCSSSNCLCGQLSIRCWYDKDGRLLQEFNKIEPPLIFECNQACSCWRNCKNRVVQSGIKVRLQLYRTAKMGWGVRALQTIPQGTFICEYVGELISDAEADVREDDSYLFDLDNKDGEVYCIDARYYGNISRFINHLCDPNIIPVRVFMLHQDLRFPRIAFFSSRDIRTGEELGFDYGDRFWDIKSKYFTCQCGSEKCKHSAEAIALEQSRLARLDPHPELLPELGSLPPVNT
Target sequence in this assay (Q96SW2 whole entry partner): as the sequence (Q96SW2 whole entry, looked up) above

[11] = system: PANC-1; assay: Effect on GSPT1 level in human PANC-1 cells at 0.008 to 10 uM measured after 8 hrs by western blot analysis; assay type: functional, cell-based; details: dose 0.008-10 µM
[12] = AUC (0 to t) in male ICR mouse at 5 mg/kg, iv measured upto 24 hrs by LC-MS/MS analysis; assay type: ADME, organism-based; details: in vivo
[13] = system: Panc1005; assay: Synergistic antiproliferative activity against human Panc1005 cells assessed as combination index upto 20 uM incubated for 72 hrs in presence of MRTX1133; assay type: functional
[14] = target: T2, Protein cereblon/Histone-lysine N-methyltransferase EHMT2; assay: PROTAC activity at CRBN/G9a in human ASPC1 cells assessed as induction of G9a degradation measured after 8 hrs by Western blot analysis; assay type: cell-based
Target sequence in this assay (Q96KQ7 whole entry): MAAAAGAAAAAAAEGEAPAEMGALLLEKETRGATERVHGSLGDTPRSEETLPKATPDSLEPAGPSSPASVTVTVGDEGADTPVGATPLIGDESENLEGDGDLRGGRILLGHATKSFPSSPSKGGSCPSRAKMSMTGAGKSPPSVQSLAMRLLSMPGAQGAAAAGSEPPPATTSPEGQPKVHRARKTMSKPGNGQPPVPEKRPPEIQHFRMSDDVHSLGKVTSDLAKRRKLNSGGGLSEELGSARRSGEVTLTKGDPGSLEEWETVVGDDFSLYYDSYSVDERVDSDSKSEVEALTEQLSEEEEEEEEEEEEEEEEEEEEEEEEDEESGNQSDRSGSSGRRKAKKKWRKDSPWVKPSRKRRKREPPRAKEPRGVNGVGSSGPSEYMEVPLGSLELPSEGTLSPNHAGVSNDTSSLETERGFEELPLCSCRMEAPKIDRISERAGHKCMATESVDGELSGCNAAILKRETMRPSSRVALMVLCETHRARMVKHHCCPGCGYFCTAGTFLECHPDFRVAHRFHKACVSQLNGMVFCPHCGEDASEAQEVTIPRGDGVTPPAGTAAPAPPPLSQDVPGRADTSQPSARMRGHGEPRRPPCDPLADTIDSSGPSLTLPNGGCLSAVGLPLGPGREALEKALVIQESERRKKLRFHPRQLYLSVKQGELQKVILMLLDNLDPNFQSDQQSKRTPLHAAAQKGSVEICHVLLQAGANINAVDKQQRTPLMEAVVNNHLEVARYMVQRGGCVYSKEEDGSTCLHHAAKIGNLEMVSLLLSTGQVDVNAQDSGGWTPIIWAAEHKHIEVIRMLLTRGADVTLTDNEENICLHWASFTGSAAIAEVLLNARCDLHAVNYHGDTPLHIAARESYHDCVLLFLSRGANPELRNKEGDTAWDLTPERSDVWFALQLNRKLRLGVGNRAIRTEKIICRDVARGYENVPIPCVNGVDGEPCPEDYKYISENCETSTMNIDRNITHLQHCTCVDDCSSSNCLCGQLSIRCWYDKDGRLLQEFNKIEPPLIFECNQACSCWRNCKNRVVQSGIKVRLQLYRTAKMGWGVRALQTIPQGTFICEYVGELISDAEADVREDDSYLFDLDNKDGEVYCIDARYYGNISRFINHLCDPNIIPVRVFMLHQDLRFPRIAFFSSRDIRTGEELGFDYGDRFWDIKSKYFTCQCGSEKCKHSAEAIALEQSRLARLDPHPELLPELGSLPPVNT
Target sequence in this assay (Q96SW2 whole entry): as the sequence (Q96SW2 whole entry, looked up) above

[15] = target: T2, Protein cereblon/Histone-lysine N-methyltransferase EHMT2; assay: PROTAC activity at CRBN/G9a in human PANC-1 cells assessed as induction of G9a degradation at 0.1 uM measured after 24 hrs by Western blot analysis; assay type: cell-based
Target sequence in this assay (Q96KQ7 2-1210 limits assumed): as the sequence (Q96KQ7 2-1210 limits assumed) above
Target sequence in this assay (Q96SW2 whole entry partner): as the sequence (Q96SW2 whole entry, looked up) above

[16] = Clearance in male ICR mouse at 5 mg/kg, iv measured upto 24 hrs by LC-MS/MS analysis; assay type: ADME, organism-based; details: in vivo
[17] = system: CWR22R; assay: Antiproliferative activity against human 22Rv1 cells assessed as inhibition of cell growth measured after 7 days by SRB assay; assay type: functional, cell-based; details: 22Rv1, 168 h
[18] = system: KP-4; assay: Synergistic antiproliferative activity against human KP-4 cells assessed as combination index upto 20 uM incubated for 72 hrs in presence of MRTX1133; assay type: functional
[19] = system: KP-4; assay: Antiproliferative activity against human KP-4 cells assessed as inhibition of cell growth measured after 72 hrs by SRB assay; assay type: functional, cell-based
[20] = target: T1, Protein cereblon/Histone-lysine N-methyltransferase EHMT1 (Homo sapiens); assay: PROTAC activity at CRBN/GLP in human PANC-1 cells assessed as induction of GLP degradation at 0.008 to 10 uM measured after 8 hrs by Western blot analysis; assay type: cell-based; details: dose 0.008-10 µM
[21] = system: KP-4; assay: Inhibition of colony formation in human KP-4 cells at 5 to 10 uM in presence of MRTX1133 measured after 10 to 14 days by crystal violet staining based analysis; assay type: functional, cell-based; details: dose 5-10 µM, time 10-14 day
[22] = system: SW1990; assay: Antiproliferative activity against human SW1990 cells assessed as inhibition of cell growth measured after 72 hrs by SRB assay; assay type: functional, cell-based
[23] = system: PANC-1; assay: Effect on H3K4me3 level in human PANC-1 cells at 0.04 to 10 uM measured after 24 hrs by Western blot analysis; assay type: functional, cell-based; details: dose 0.04-10 µM
[24] = Volume of distribution at steady state in male ICR mouse at 5 mg/kg, iv measured upto 24 hrs by LC-MS/MS analysis; assay type: ADME, organism-based; details: in vivo, read-out: Vdss
[25] = system: ASPC1; assay: Induction of apoptosis in human ASPC1 cells at 10 uM incubated for 24 hrs in presence of 1 uM MRTX1133 by Annexin V-FITC/PI staining based flow cytometry analysis; assay type: functional, cell-based
[26] = system: KP-4; assay: Synergistic antiproliferative activity against human KP-4 cells at 0 to 10 uM incubated for 72 hrs in presence of MRTX1133 by SRB assay; assay type: functional, cell-based; details: dose 0-10 µM
[27] = system: PANC-1; assay: Effect on H3K27me3 level in human PANC-1 cells at 0.04 to 10 uM measured after 24 hrs by Western blot analysis; assay type: functional, cell-based; details: dose 0.04-10 µM
[28] = system: Panc 02.03; assay: Synergistic antiproliferative activity against human Panc 02.03 cells assessed as combination index for ED90 upto 20 uM incubated for 72 hrs in presence of MRTX1133; assay type: functional
[29] = system: Panc1005; assay: Synergistic antiproliferative activity against human Panc1005 cells assessed as combination index for ED90 upto 20 uM incubated for 72 hrs in presence of MRTX1133; assay type: functional
[30] = Half life in male ICR mouse at 5 mg/kg, iv measured upto 24 hrs by LC-MS/MS analysis; assay type: ADME, organism-based; details: in vivo
[31] = system: PANC-1; assay: Effect on H3K4me2 level in human PANC-1 cells at 0.04 to 10 uM measured after 24 hrs by Western blot analysis; assay type: functional, cell-based; details: dose 0.04-10 µM
[32] = system: Panc 05.04; assay: Antiproliferative activity against human Panc 05.04 cells assessed as inhibition of cell growth measured after 72 hrs by SRB assay; assay type: functional, cell-based

For `COc1cc2c(NC3CCN(CCCC(=O)NCCCCCCCCNc4cccc5c4C(=O)N(C4CCC(=O)NC4=O)C5=O)CC3)nc(C3CCCCC3)nc2cc1OCCCN1CCCC1` (configuration not stated), the Activity [1] was “Active”, the Activity [2] was “Active” and the Cmax [3] was 2670 ng/mL. For the same compound, the Activity [4] was “inactive”, the Activity [5] was “inactive” and the CI [6] was less than 0.4. The CI [7] was less than 0.4, the AUC(0-t) at 24 h [8] was 6150 ng·h/mL and the Activity [9] was “inactive”. For the same compound, the Activity [10] was “inactive”, the Activity [11] was “inactive” and the AUC(0-t) at 24 h [12] was 3780 ng·h/mL. For the same compound, the CI [13] was less than 0.8, the DC50 [14] was 0.2 µM and the Activity [15] was “Active”. It also gave a clearance [16] of 22.4 mL/min/kg, an IC50 [17] of 9.9 µM and a CI [18] of less than 0.8. The Activity [19] was “Active”, the Activity [20] was “inactive” and the inhibition [21] was “Active”. The Activity [22] was “Active”, the Activity [23] was “inactive” and the Vd [24] was 2.61 L/kg. For the same compound, the Activity [25] was “Active”, the Activity [26] was “Active” and the Activity [27] was “inactive”. The CI [28] was less than 0.4, the CI [29] was less than 0.4 and the half-life [30] was 5.3 h. The Activity [31] was “inactive” and the Activity [32] was “Active”.
